Where two headings read alike, the source gives them in different places.
Experiments:
cancer tissue = conditions: mouse, in vivo
Source text: (§1) The finding 3 will be described with reference to a case where a cell morphology in a living body is imaged under the multiphoton laser microscope (FV1000MPE manufactured by Olympus Corporation) while changing the focal point position and a plurality of captured images are cut in a predetermined position to create a cross-sectional image (tomographic image). A laboratory mouse was used as the living body.
(§2) As the stain for staining the cell group, both the stain containing curcumin and the stain containing Acid Red (red #106) were used. The staining period was set at 5 minutes. The staining period is the period for which the stain is caused to be in contact with the cell group and the dye of the stain is allowed to penetrate into the cells themselves or the gaps between the cells.

healthy mucosa tissue = conditions: mouse, in vivo
Source text: as §1, §2

| depth to which the tissue is stained (cancer tissue; 5 min) | depth to which the tissue is stained (healthy mucosa tissue; 5 min) | depth to which the tissue is stained (cancer tissue) | depth to which the tissue is stained (healthy mucosa tissue) | SMILES |
| --- | --- | --- | --- | --- |
| about 40 μm | about 20 μm |  |  | COc1cc(/C=C/C(=O)CC(=O)/C=C/c2ccc(O)c(OC)c2)ccc1O [curcumin dye, curcumin] |
|  |  | about 40 μm | about 70 μm | CCN(CC)c1ccc2c(-c3ccc(S(=O)(=O)[O-])cc3S(=O)(=O)[O-])c3ccc(=[N+](CC)CC)cc-3oc2c1.[Na+] [Acid Red dye, Acid Red] |
